Consider one molecule from patent US20140296567A1, “3-HYDROXYANTHRANILIC ACID (3-HAA) THERAPY FOR PREVENTION AND TREATMENT OF HYPERLIPIDEMIA AND ITS CARDIOVASULAR COMPLICATIONS” (priority 2011, published 2014).

The test system of data set [1] is peritoneal macrophages from LdIr−/− mice. Put plainly: OxLDL uptake by peritoneal macrophages (FITC-oxLDL, flow cytometry). Format: cell-based. Particulars: macrophages from mice treated with 3-HAA 200 mg/Kg i.p. for 8 weeks vs PBS; 20 μg/ml FITC-oxLDL, 2 h, 37° C.; P<0.01. The procedure: Peritoneal macrophages from LdIr−/− mice injected with 3-HAA (200 mg/Kg) or PBS (8 weeks treatment) were incubated with FITC-oxLDL at a concentration of 20 μg protein/ml for 2 h at 37° C. The uptake was quantified by flow cytometry. (A) Values given are MFI of FITC-oxLDL, means±SE of triplicate wells for each mouse (n=5 and 6, for 3-HAA or PBS respectively).
LDL was labeled using a modification of a previously described method^32. Briefly, LDL (1.5-2 mg/ml) was dialyzed overnight against 500 mM NaHCO3 pH 9.5. Next, 50 μg of FITC (Sigma-Aldrich, St. Louis, Mo., USA), dissolved in DMSO (1 mg/ml), was added for each mg of protein in LDL, and incubated at room temperature for 2 hours. After incubation conjugates were separated from the free fluorochrome by gel filtration using a PD10 column (GE Healthcare, Uppsala, Sweden) and PBS for elution. FITC conjugation was evaluated by absorption spectroscopy against a FITC standard curve at 495 nm. Protein concentration was determined by Bradford assay (Biorad, Calif., USA). […] The extent of oxidation was evaluated by the TBARS assay, as described^33.
Twenty four hours after the last injection of 3-HAA or PBS, peritoneal macrophages were isolated from LdIr−/− mice by peritoneal lavage with PBS. […] The cells were analyzed on a CyAn™ ADP flow cytometer (Dako, Glostrup, Denmark).
On the technique in general: Flow cytometry measures light scatter and fluorescence of single cells or particles in a stream.

The subject of data set [2] is LdIr−/− mice. Briefly: Plasma lipid analysis (total cholesterol, triglycerides; enzymatic colorimetric kits). In kind it is in vivo. Particulars: 3-HAA 200 mg/kg i.p., 8 weeks, high-fat diet, vs PBS; P<0.01. The procedure: It was hypothesized that induction of protective immunity, with effects on metabolism and inflammation, could be achieved by injecting 3-HAA (200 mg/kg) intraperitoneally, 3 times per week, for 8 weeks. Twelve weeks old LdIr−/− mice were treated with 3-HAA, or PBS as control. The mice were fed a high-fat diet starting 2 days after the first injection until sacrifice, 8 weeks later with CO2.
Plasma cholesterol and triglycerides were measured using enzymatic colorimetric kits according to the manufacturer's protocol. Dissected aortic arches were stained with Sudan IV en face and % lesion area of total vessel area was calculated. Additionally, the effect of 3-HAA on the uptake oxLDL was evaluated in cultures of peritoneal macrophages from 3-HAA or PBS treated mice.
(§1) LdIr−/− mice were bred and housed in the Animal Experimentation Unit at the Center for Molecular Medicine, Karolinska University Hospital. The mice (n=7-10 per group) received 3 intra-peritoneal injections of PBS (200 μl) or 3-HAA (200 mg/Kg in PBS) per week for 6 weeks and 1 injection per week in the following two weeks (total 24 injections) and were sacrificed with CO2. […]
Plasma cholesterol and triglycerides were measured using enzymatic colorimetric kits (Randox Lab. Ltd. Crumin, UK) according to the manufacturer's protocol.

In data set [3] the test system is LdIr−/− mice. Briefly: Lipoprotein profiles of plasma (size fractionation, cholesterol per fraction). Format: in vivo. Particulars: 3-HAA 200 mg/kg i.p., 8 weeks. How it is done: (§2) LdIr−/− mice were bred and housed in the Animal Experimentation Unit at the Center for Molecular Medicine, Karolinska University Hospital. The mice (n=7-10 per group) received 3 intra-peritoneal injections of PBS (200 μl) or 3-HAA (200 mg/Kg in PBS) per week for 6 weeks and 1 injection per week in the following two weeks (total 24 injections) and were sacrificed with CO2. The mice were fed a high-fat diet (corn starch, cocoa butter, casein, glucose, sucrose, cellulose flour, minerals and vitamins; 17.2% protein, 21% fat (62.9% saturated, 33.9 unsaturated and 3.4% polyunsaturated), 0.15% cholesterol, 43% carbohydrates, 10% H2O and 3.9% cellulose fibers; R638 Lantmännen, Sweden) starting 2 days after the start of treatment.
Plasma cholesterol lipoprotein profiles were determined using a modification of the method of Okazaki et al^34. Briefly, plasma samples (50 μl) from mice treated with 3-HAA or PBS were fractionated using an HR10/30 Superose 6 column (GE Healthcare, Uppsala, Sweden) and a Discovery BIO GFC-500 as pre-column (5 cm×7.8 i.d.; Supelco®, Sigma-Aldrich, PA, USA) coupled to Prominence UFLC system (Shimadzu, Kyoto, Japan) and equilibrated with Tris-buffered saline, pH 7.4. Fractions of 200 μl were collected using Foxy Jr® fraction collector (Teledyne Isco Inc, NE, USA) and total cholesterol was determined in each fraction using enzymatic colorimetric kit (Randox Lab. Ltd. Crumin, UK).

The subject of data set [4] is LdIr−/− mice. Briefly: Lesion analysis, en face Sudan IV staining of the aortic arch. In kind it is in vivo. Conditions: 3-HAA 200 mg/kg i.p., 8 weeks on high fat diet, vs PBS; P<0.001. How it is done:
Twelve weeks old LdIr−/− mice were treated with 3-HAA or PBS as control. The mice were sacrificed after 8 weeks on a Western diet. Dissected arches were stained with Sudan IV en face and % lesion area of total vessel area was calculated using Image J image analysis software (NIH, Bethesda, Md.). The additive area of all the plaques in a given aortic arch was calculated as a percent of the total surface area of the arch. (n=7 and 10, for 3-HAA or PBS respectively). ***) P<0.001.
as §1
En face lipid accumulation was determined in the aortic arch from 3-HAA and PBS treated mice using Sudan IV staining. […] The additive area of all the plaques in a given aortic arch was calculated as a percent of the total surface area of the arch (not including branching vessels). Quantitation of plaques was performed using Image J software (NIH, Bethesda, USA).

Data set [5] is described as follows: Body weight of treated mice. Format: in vivo. Particulars: 3-HAA 200 mg/kg i.p., 8 weeks; data not shown. How it is done: as §2

Take `Nc1c(O)cccc1C(=O)O` [3-HAA, 2-Amino-3-hydroxybenzoic acid]: the “reduced uptake of FITC-oxLDL” value in data set [1] is recorded as “approx 79%”. Also, in the data set on LdIr−/− mice [2], the “reduction in plasma total cholesterol” value was “approx 50%” and the “reduction in plasma triglycerides” value is listed as “approx 72%”. The HDL levels entry in the data set with LdIr−/− mice [3] (high-fat diet, vs PBS) is recorded as “effectively raised HDL levels”. Besides, in the data set with LdIr−/− mice [3] (mean±SEM, PBS group 2.3±0.24, P<0.05), the LDL/HDL ratio is 1.4±0.16. In the data set on LdIr−/− mice [3] (mean±SEM, PBS group 4.0±0.55, P<0.01), the VLDL/HDL ratio stood at 1.4±0.31. Moreover, the “reduction in atherosclerotic lesion area in en face preparations of the aortic arch” value in the data set with LdIr−/− mice [4] is on record as “approximately 90%”. For the same molecule, the “effect on body weight” value in data set [5] is listed as “no effect on body weight”.
